Laboratory results published in PubChem BioAssay (NCI).
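Each compound was tested at five concentrations against cells in 96-well plates for 48 hours. At the TGI there is no net growth.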

test system: K-562 leukemia; assay: NCI anticancer screen, dose series, 48 h

Row | Compound | TGI
1 | C[C@]12OC(=O)[C@]3(O)CC[C@H]4[C@@H](C[C@@H](O)[C@@]5(Cl)CC=CC(=O)[C@]45C)[C@]45OCC6C(=O)O[C@@H]1C[C@@]6(C)[C@H](C4=O)[C@@]32O5 (stereo partly specified) | 23.8 µM
2 | COc1ccc2nc3n[nH]c(N)c3nc2c1 | > 100 µM
3 | O=C(NC(N1CCN(c2cc3c(cc2F)c(=O)c(C(=O)O)cn3C2CC2)CC1)(C(F)(F)F)C(F)(F)F)c1ccccc1 | > 100 µM
4 | Cc1cc2nc3[nH]c4c(Cl)cc(Cl)cc4c3nc2cc1C | > 100 µM

test system: UO-31 renal; assay: NCI anticancer screen, dose series, 48 h

Row | Compound | TGI
5 | C[C@]12OC(=O)[C@]3(O)CC[C@H]4[C@@H](C[C@@H](O)[C@@]5(Cl)CC=CC(=O)[C@]45C)[C@]45OCC6C(=O)O[C@@H]1C[C@@]6(C)[C@H](C4=O)[C@@]32O5 (stereo partly specified) | 2.57 µM
6 | COc1ccc2nc3n[nH]c(N)c3nc2c1 | 55 µM
7 | O=C(NC(N1CCN(c2cc3c(cc2F)c(=O)c(C(=O)O)cn3C2CC2)CC1)(C(F)(F)F)C(F)(F)F)c1ccccc1 | 81.5 µM
8 | Cc1cc2nc3[nH]c4c(Cl)cc(Cl)cc4c3nc2cc1C | > 100 µM
9 | Cn1c(CCC2(C)Cc3ccccc3C(=O)O2)cc2ccccc2c1=O (stereo unspecified) | 37.7 µM

test system: ACHN renal; assay: NCI anticancer screen, dose series, 48 h

Row | Compound | TGI
10 | C[C@]12OC(=O)[C@]3(O)CC[C@H]4[C@@H](C[C@@H](O)[C@@]5(Cl)CC=CC(=O)[C@]45C)[C@]45OCC6C(=O)O[C@@H]1C[C@@]6(C)[C@H](C4=O)[C@@]32O5 (stereo partly specified) | 5.9 µM
11 | COc1ccc2nc3n[nH]c(N)c3nc2c1 | > 23.7 µM
12 | O=C(NC(N1CCN(c2cc3c(cc2F)c(=O)c(C(=O)O)cn3C2CC2)CC1)(C(F)(F)F)C(F)(F)F)c1ccccc1 | > 100 µM
13 | Cc1cc2nc3[nH]c4c(Cl)cc(Cl)cc4c3nc2cc1C | > 100 µM

test system: SK-MEL-5 melanoma; assay: NCI anticancer screen, dose series, 48 h

Row | Compound | TGI
14 | C[C@]12OC(=O)[C@]3(O)CC[C@H]4[C@@H](C[C@@H](O)[C@@]5(Cl)CC=CC(=O)[C@]45C)[C@]45OCC6C(=O)O[C@@H]1C[C@@]6(C)[C@H](C4=O)[C@@]32O5 (stereo partly specified) | 13.2 µM
15 | COc1ccc2nc3n[nH]c(N)c3nc2c1 | > 29.1 µM
16 | O=C(NC(N1CCN(c2cc3c(cc2F)c(=O)c(C(=O)O)cn3C2CC2)CC1)(C(F)(F)F)C(F)(F)F)c1ccccc1 | 62.9 µM
17 | Cc1cc2nc3[nH]c4c(Cl)cc(Cl)cc4c3nc2cc1C | > 100 µM
18 | Cn1c(CCC2(C)Cc3ccccc3C(=O)O2)cc2ccccc2c1=O (stereo unspecified) | 30.9 µM

test system: MDA-MB-231 breast; assay: NCI anticancer screen, dose series, 48 h

Row | Compound | TGI
19 | C[C@]12OC(=O)[C@]3(O)CC[C@H]4[C@@H](C[C@@H](O)[C@@]5(Cl)CC=CC(=O)[C@]45C)[C@]45OCC6C(=O)O[C@@H]1C[C@@]6(C)[C@H](C4=O)[C@@]32O5 (stereo partly specified) | 28.6 µM
20 | COc1ccc2nc3n[nH]c(N)c3nc2c1 | 64.4 µM
21 | O=C(NC(N1CCN(c2cc3c(cc2F)c(=O)c(C(=O)O)cn3C2CC2)CC1)(C(F)(F)F)C(F)(F)F)c1ccccc1 | 70.6 µM
22 | Cc1cc2nc3[nH]c4c(Cl)cc(Cl)cc4c3nc2cc1C | > 100 µM
23 | Cn1c(CCC2(C)Cc3ccccc3C(=O)O2)cc2ccccc2c1=O (stereo unspecified) | > 100 µM

test system: SK-MEL-2 melanoma; assay: NCI anticancer screen, dose series, 48 h

Row | Compound | TGI
24 | C[C@]12OC(=O)[C@]3(O)CC[C@H]4[C@@H](C[C@@H](O)[C@@]5(Cl)CC=CC(=O)[C@]45C)[C@]45OCC6C(=O)O[C@@H]1C[C@@]6(C)[C@H](C4=O)[C@@]32O5 (stereo partly specified) | 2.71 µM
25 | COc1ccc2nc3n[nH]c(N)c3nc2c1 | 17.5 µM
26 | O=C(NC(N1CCN(c2cc3c(cc2F)c(=O)c(C(=O)O)cn3C2CC2)CC1)(C(F)(F)F)C(F)(F)F)c1ccccc1 | > 100 µM
27 | Cc1cc2nc3[nH]c4c(Cl)cc(Cl)cc4c3nc2cc1C | > 100 µM
28 | Cn1c(CCC2(C)Cc3ccccc3C(=O)O2)cc2ccccc2c1=O (stereo unspecified) | 64.9 µM

test system: SF-268 CNS; assay: NCI anticancer screen, dose series, 48 h

Row | Compound | TGI
29 | C[C@]12OC(=O)[C@]3(O)CC[C@H]4[C@@H](C[C@@H](O)[C@@]5(Cl)CC=CC(=O)[C@]45C)[C@]45OCC6C(=O)O[C@@H]1C[C@@]6(C)[C@H](C4=O)[C@@]32O5 (stereo partly specified) | 7.39 µM
30 | COc1ccc2nc3n[nH]c(N)c3nc2c1 | 23.8 µM
31 | O=C(NC(N1CCN(c2cc3c(cc2F)c(=O)c(C(=O)O)cn3C2CC2)CC1)(C(F)(F)F)C(F)(F)F)c1ccccc1 | > 100 µM
32 | Cc1cc2nc3[nH]c4c(Cl)cc(Cl)cc4c3nc2cc1C | > 100 µM

test system: SW-620 colon; assay: NCI anticancer screen, dose series, 48 h

Row | Compound | TGI
33 | C[C@]12OC(=O)[C@]3(O)CC[C@H]4[C@@H](C[C@@H](O)[C@@]5(Cl)CC=CC(=O)[C@]45C)[C@]45OCC6C(=O)O[C@@H]1C[C@@]6(C)[C@H](C4=O)[C@@]32O5 (stereo partly specified) | 12.6 µM
34 | COc1ccc2nc3n[nH]c(N)c3nc2c1 | 45.9 µM
35 | O=C(NC(N1CCN(c2cc3c(cc2F)c(=O)c(C(=O)O)cn3C2CC2)CC1)(C(F)(F)F)C(F)(F)F)c1ccccc1 | > 100 µM
36 | Cc1cc2nc3[nH]c4c(Cl)cc(Cl)cc4c3nc2cc1C | > 100 µM

test system: OVCAR-8 ovarian; assay: NCI anticancer screen, dose series, 48 h

Row | Compound | TGI
37 | C[C@]12OC(=O)[C@]3(O)CC[C@H]4[C@@H](C[C@@H](O)[C@@]5(Cl)CC=CC(=O)[C@]45C)[C@]45OCC6C(=O)O[C@@H]1C[C@@]6(C)[C@H](C4=O)[C@@]32O5 (stereo partly specified) | 8.39 µM
38 | COc1ccc2nc3n[nH]c(N)c3nc2c1 | 32.5 µM
39 | O=C(NC(N1CCN(c2cc3c(cc2F)c(=O)c(C(=O)O)cn3C2CC2)CC1)(C(F)(F)F)C(F)(F)F)c1ccccc1 | > 100 µM
40 | Cc1cc2nc3[nH]c4c(Cl)cc(Cl)cc4c3nc2cc1C | > 100 µM
41 | Cn1c(CCC2(C)Cc3ccccc3C(=O)O2)cc2ccccc2c1=O (stereo unspecified) | > 100 µM

test system: NCI/ADR-RES ovarian; assay: NCI anticancer screen, dose series, 48 h

Row | Compound | TGI
42 | C[C@]12OC(=O)[C@]3(O)CC[C@H]4[C@@H](C[C@@H](O)[C@@]5(Cl)CC=CC(=O)[C@]45C)[C@]45OCC6C(=O)O[C@@H]1C[C@@]6(C)[C@H](C4=O)[C@@]32O5 (stereo partly specified) | 60.6 µM
43 | COc1ccc2nc3n[nH]c(N)c3nc2c1 | 33.8 µM
44 | O=C(NC(N1CCN(c2cc3c(cc2F)c(=O)c(C(=O)O)cn3C2CC2)CC1)(C(F)(F)F)C(F)(F)F)c1ccccc1 | > 100 µM
45 | Cc1cc2nc3[nH]c4c(Cl)cc(Cl)cc4c3nc2cc1C | > 100 µM
46 | Cn1c(CCC2(C)Cc3ccccc3C(=O)O2)cc2ccccc2c1=O (stereo unspecified) | > 100 µM

test system: MDA-MB-435; assay: NCI anticancer screen, dose series, 48 h

Row | Compound | TGI
47 | C[C@]12OC(=O)[C@]3(O)CC[C@H]4[C@@H](C[C@@H](O)[C@@]5(Cl)CC=CC(=O)[C@]45C)[C@]45OCC6C(=O)O[C@@H]1C[C@@]6(C)[C@H](C4=O)[C@@]32O5 (stereo partly specified) | 23.8 µM
48 | COc1ccc2nc3n[nH]c(N)c3nc2c1 | 72.3 µM
49 | O=C(NC(N1CCN(c2cc3c(cc2F)c(=O)c(C(=O)O)cn3C2CC2)CC1)(C(F)(F)F)C(F)(F)F)c1ccccc1 | > 100 µM
50 | Cc1cc2nc3[nH]c4c(Cl)cc(Cl)cc4c3nc2cc1C | > 100 µM
51 | Cn1c(CCC2(C)Cc3ccccc3C(=O)O2)cc2ccccc2c1=O (stereo unspecified) | 41.9 µM

test system: OVCAR-4 ovarian; assay: NCI anticancer screen, dose series, 48 h

Row | Compound | TGI
52 | C[C@]12OC(=O)[C@]3(O)CC[C@H]4[C@@H](C[C@@H](O)[C@@]5(Cl)CC=CC(=O)[C@]45C)[C@]45OCC6C(=O)O[C@@H]1C[C@@]6(C)[C@H](C4=O)[C@@]32O5 (stereo partly specified) | 8.63 µM
53 | COc1ccc2nc3n[nH]c(N)c3nc2c1 | > 87.3 µM
54 | O=C(NC(N1CCN(c2cc3c(cc2F)c(=O)c(C(=O)O)cn3C2CC2)CC1)(C(F)(F)F)C(F)(F)F)c1ccccc1 | > 100 µM
55 | Cc1cc2nc3[nH]c4c(Cl)cc(Cl)cc4c3nc2cc1C | > 100 µM
56 | Cn1c(CCC2(C)Cc3ccccc3C(=O)O2)cc2ccccc2c1=O (stereo unspecified) | > 100 µM

test system: SK-OV-3 ovarian; assay: NCI anticancer screen, dose series, 48 h

Row | Compound | TGI
57 | C[C@]12OC(=O)[C@]3(O)CC[C@H]4[C@@H](C[C@@H](O)[C@@]5(Cl)CC=CC(=O)[C@]45C)[C@]45OCC6C(=O)O[C@@H]1C[C@@]6(C)[C@H](C4=O)[C@@]32O5 (stereo partly specified) | 10.9 µM
58 | COc1ccc2nc3n[nH]c(N)c3nc2c1 | > 64.9 µM
59 | O=C(NC(N1CCN(c2cc3c(cc2F)c(=O)c(C(=O)O)cn3C2CC2)CC1)(C(F)(F)F)C(F)(F)F)c1ccccc1 | 94.1 µM
60 | Cc1cc2nc3[nH]c4c(Cl)cc(Cl)cc4c3nc2cc1C | > 100 µM
61 | Cn1c(CCC2(C)Cc3ccccc3C(=O)O2)cc2ccccc2c1=O (stereo unspecified) | 65.7 µM

test system: BT-549 breast; assay: NCI anticancer screen, dose series, 48 h

Row | Compound | TGI
62 | C[C@]12OC(=O)[C@]3(O)CC[C@H]4[C@@H](C[C@@H](O)[C@@]5(Cl)CC=CC(=O)[C@]45C)[C@]45OCC6C(=O)O[C@@H]1C[C@@]6(C)[C@H](C4=O)[C@@]32O5 (stereo partly specified) | 2.27 µM
63 | COc1ccc2nc3n[nH]c(N)c3nc2c1 | 62.9 µM
64 | O=C(NC(N1CCN(c2cc3c(cc2F)c(=O)c(C(=O)O)cn3C2CC2)CC1)(C(F)(F)F)C(F)(F)F)c1ccccc1 | > 100 µM
65 | Cc1cc2nc3[nH]c4c(Cl)cc(Cl)cc4c3nc2cc1C | > 100 µM
66 | Cn1c(CCC2(C)Cc3ccccc3C(=O)O2)cc2ccccc2c1=O (stereo unspecified) | 44 µM

test system: NCI-H522 lung; assay: NCI anticancer screen, dose series, 48 h

Row | Compound | TGI
67 | C[C@]12OC(=O)[C@]3(O)CC[C@H]4[C@@H](C[C@@H](O)[C@@]5(Cl)CC=CC(=O)[C@]45C)[C@]45OCC6C(=O)O[C@@H]1C[C@@]6(C)[C@H](C4=O)[C@@]32O5 (stereo partly specified) | 1.14 µM
68 | COc1ccc2nc3n[nH]c(N)c3nc2c1 | 27.3 µM
69 | O=C(NC(N1CCN(c2cc3c(cc2F)c(=O)c(C(=O)O)cn3C2CC2)CC1)(C(F)(F)F)C(F)(F)F)c1ccccc1 | 38.7 µM
70 | Cc1cc2nc3[nH]c4c(Cl)cc(Cl)cc4c3nc2cc1C | > 100 µM
71 | Cn1c(CCC2(C)Cc3ccccc3C(=O)O2)cc2ccccc2c1=O (stereo unspecified) | 44.2 µM
